Several values for one entry are separate records, joined by “and”; a condition that tells them apart may be missing. Equal values may be shown once. Inconclusive results and toxic doses are left out. Cut-off read from the data, not from the text of the source: active = T/C of 150% or more; inactive = T/C below 125%.
Tested on: L1210 leukemia ip in BDF1 mice, survival T/C
Assay: NCI In Vivo Anticancer Drug Screen. Data for tumor model L1210 Leukemia (intraperitoneal) in B6D2F1 (BDF1) mice
Details: endpoint: mean survival time, higher = longer survival
Procedure, shortened: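 Transplanted-tumor mice were given test agent; controls received vehicle only. Survival readings from the two groups were divided (treated over control).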

[1] = dose: 50.0 mg/kg/injection, schedule: Q01DX001 (ip), vehicle: saline
[2] = dose: 100.0 mg/kg/injection, schedule: Q01DX001 (ip), vehicle: saline
[3] = dose: 200.0 mg/kg/injection, schedule: Q01DX001 (ip), vehicle: saline
[4] = dose: 100.0 mg/kg/injection, schedule: Q01DX001 (ip), vehicle: Klucel (hydroxypropylcellulose) (HPC)
[5] = dose: 200.0 mg/kg/injection, schedule: Q01DX001 (ip), vehicle: Klucel (hydroxypropylcellulose) (HPC)
[6] = dose: 400.0 mg/kg/injection, schedule: Q01DX001 (ip), vehicle: Klucel (hydroxypropylcellulose) (HPC)
[7] = dose: 100.0 mg/kg/injection, schedule: Q01DX001 (ip), vehicle: carboxymethylcellulose (CMC)
[8] = dose: 200.0 mg/kg/injection, schedule: Q01DX001 (ip), vehicle: carboxymethylcellulose (CMC)
[9] = dose: 400.0 mg/kg/injection, schedule: Q01DX001 (ip), vehicle: carboxymethylcellulose (CMC)
[10] = dose: 100.0 mg/kg/injection, schedule: Q01DX001 (ip), vehicle: other
[11] = dose: 200.0 mg/kg/injection, schedule: Q01DX001 (ip), vehicle: other
[12] = dose: 400.0 mg/kg/injection, schedule: Q01DX001 (ip), vehicle: other
[13] = dose: 100.0 mg/kg/injection, schedule: Q04DX003 (ip), vehicle: Klucel (hydroxypropylcellulose) (HPC)
[14] = dose: 200.0 mg/kg/injection, schedule: Q04DX003 (ip), vehicle: Klucel (hydroxypropylcellulose) (HPC)
[15] = dose: 400.0 mg/kg/injection, schedule: Q04DX003 (ip), vehicle: Klucel (hydroxypropylcellulose) (HPC)
[16] = dose: 50.0 mg/kg/injection, schedule: Q01DX009 (ip), vehicle: Klucel (hydroxypropylcellulose) (HPC)
[17] = dose: 100.0 mg/kg/injection, schedule: Q01DX009 (ip), vehicle: Klucel (hydroxypropylcellulose) (HPC)
[18] = dose: 200.0 mg/kg/injection, schedule: Q01DX009 (ip), vehicle: Klucel (hydroxypropylcellulose) (HPC)
[19] = dose: 400.0 mg/kg/injection, schedule: Q01DX009 (ip), vehicle: Klucel (hydroxypropylcellulose) (HPC)
[20] = dose: 100.0 mg/kg/injection, schedule: Q01DX009 (ip), vehicle: saline with Tween-80
[21] = dose: 100.0 mg/kg/injection, schedule: Q04DX003 (ip), vehicle: saline with Tween-80
[22] = dose: 200.0 mg/kg/injection, schedule: Q04DX003 (ip), vehicle: saline with Tween-80
[23] = dose: 400.0 mg/kg/injection, schedule: Q04DX003 (ip), vehicle: saline with Tween-80

Measured: T/C

COc1cc(C(O)C(Cl)(Cl)Cl)ccc1O (stereo unspecified)
inactive: dose: 100.0 mg/kg/injection, schedule: Q04DX003 (ip), vehicle: other 105 % of control | dose: 200.0 mg/kg/injection, schedule: Q04DX003 (ip), vehicle: other 105 % of control | dose: 400.0 mg/kg/injection, schedule: Q04DX003 (ip), vehicle: other 102 % of control

CN=C(NC)c1cccc(NC(=O)c2cccc(C(=O)Nc3cccc(C(=NC)NC)c3)c2)c1
inactive: dose: 4.4 mg/kg/injection, schedule: Q01DX Z (ip), vehicle: carboxymethylcellulose (CMC) 96 % of control | dose: 6.6 mg/kg/injection, schedule: Q01DX Z (ip), vehicle: carboxymethylcellulose (CMC) 98 % of control | dose: 10.0 mg/kg/injection, schedule: Q01DX Z (ip), vehicle: carboxymethylcellulose (CMC) 96 % of control | dose: 15.0 mg/kg/injection, schedule: Q01DX Z (ip), vehicle: carboxymethylcellulose (CMC) 93 % of control and 98 % of control | dose: 22.0 mg/kg/injection, schedule: Q01DX Z (ip), vehicle: carboxymethylcellulose (CMC) 94 % of control

O=C(O)CN(CC(=O)O)c1ccccc1
inactive: [1] 103 % of control | [2] 92 % of control | [3] 103 % of control | dose: 400.0 mg/kg/injection, schedule: Q01DX001 (ip), vehicle: saline 95 % of control

CC1(C)c2ccccc2N(CCCN2CCCCC2)c2ccccc21
inactive: dose: 9.0 mg/kg/injection, schedule: Q01DX001 (ip), vehicle: water 101 % of control | dose: 18.0 mg/kg/injection, schedule: Q01DX001 (ip), vehicle: water 93 % of control | dose: 36.0 mg/kg/injection, schedule: Q01DX001 (ip), vehicle: water 101 % of control | dose: 50.0 mg/kg/injection, schedule: Q01DX001 (ip), vehicle: water 91 % of control | dose: 100.0 mg/kg/injection, schedule: Q01DX001 (ip), vehicle: water 91 % of control | dose: 200.0 mg/kg/injection, schedule: Q01DX001 (ip), vehicle: water 100 % of control

O=C(c1ccccc1)C(C(NC1CCCCC1)c1ccccc1)N1CCCCC1 (stereo unspecified)
inactive: [4] 95 % of control | [5] 92 % of control | [6] 92 % of control

CC(C)CC(=O)N(C)c1ccccc1
inactive: dose: 50.0 mg/kg/injection, schedule: Q01DX001 (ip), vehicle: carboxymethylcellulose (CMC) 111 % of control | [7] 108 % of control | [8] 100 % of control | [9] 97 % of control

CCOC(=O)c1ccc(N=Cc2cnc(N)nc2N)cc1
inactive: [10] 93 % of control | [11] 87 % of control | [12] 93 % of control

CCCCCCCCCC/C=N/Nc1ccc([N+](=O)[O-])cc1[N+](=O)[O-]
inactive: dose: 50.0 mg/kg/injection, schedule: Q01DX001 (ip), vehicle: saline with Tween-80 93 % of control | dose: 100.0 mg/kg/injection, schedule: Q01DX001 (ip), vehicle: saline with Tween-80 92 % of control | dose: 200.0 mg/kg/injection, schedule: Q01DX001 (ip), vehicle: saline with Tween-80 93 % of control

NC(=S)Nc1ccccc1Cl
inactive: [2] 103 % of control | [3] 101 % of control

CCOc1ccc(Cl)cc1C1N(Cc2ccccc2OC)CCCN1Cc1ccccc1OC
inactive: [7] 87 % of control | [8] 93 % of control | [9] 91 % of control

COC(=O)Nc1ccc(C)c(NC(=O)OC)c1
inactive: [13] 104 % of control | [14] 93 % of control | [15] 107 % of control

CN(C)c1ccc(C(=O)c2ccccc2)cc1
inactive: [16] 101 % of control | [17] 108 % of control | [13] 100 % of control | [18] 95 % of control | [14] 105 % of control | [19] 102 % of control | [15] 100 % of control

O=C(O)C(=O)C(Cl)Br (stereo unspecified)
inactive: dose: 12.5 mg/kg/injection, schedule: Q01DX001 (ip), vehicle: saline 111 % of control | dose: 25.0 mg/kg/injection, schedule: Q01DX001 (ip), vehicle: saline 118 % of control | [1] 111 % of control

CCCCSc1n[nH]c(=O)[nH]c1=S
inactive: [2] 91 % of control | [3] 96 % of control

C[N+]12CC3C(O)CC1CCC32 (stereo unspecified)
inactive: [2] 101 % of control

COc1ccc2nc(NC(=O)NCCCl)sc2c1
inactive: [4] 90 % of control | [5] 95 % of control | [6] 91 % of control

c1cc(C2OCCO2)cs1
inactive: dose: 50.0 mg/kg/injection, schedule: Q01DX009 (ip), vehicle: saline with Tween-80 86 % of control | [20] 86 % of control

O=C(Nc1ccc(O)cc1)Nc1cccc(Cl)c1Cl
inactive: [17] 97 % of control | [18] 92 % of control | [19] 103 % of control

COc1c(N(C)C)cc2c(c1C)OC(C)(C)C=C2
inactive: [21] 96 % of control | [22] 94 % of control | [23] 96 % of control

C/C=C(\C)COC(=O)c1ccc([N+](=O)[O-])cc1
inactive: [10] 104 % of control | [11] 98 % of control | [12] 93 % of control

CCCCCCCCCCCc1nc(N)nc(NCCCC)n1
inactive: dose: 12.5 mg/kg/injection, schedule: Q01DX009 (ip), vehicle: Klucel (hydroxypropylcellulose) (HPC) 97 % of control | dose: 25.0 mg/kg/injection, schedule: Q01DX009 (ip), vehicle: Klucel (hydroxypropylcellulose) (HPC) 96 % of control | dose: 25.0 mg/kg/injection, schedule: Q04DX002 (ip), vehicle: Klucel (hydroxypropylcellulose) (HPC) 93 % of control | [16] 86 % of control | dose: 50.0 mg/kg/injection, schedule: Q04DX002 (ip), vehicle: Klucel (hydroxypropylcellulose) (HPC) 96 % of control | dose: 200.0 mg/kg/injection, schedule: Q04DX002 (ip), vehicle: Klucel (hydroxypropylcellulose) (HPC) 89 % of control | dose: 400.0 mg/kg/injection, schedule: Q04DX002 (ip), vehicle: Klucel (hydroxypropylcellulose) (HPC) 89 % of control

Cc1nnnn1C1CCCCC1I (stereo unspecified)
inactive: dose: 10.0 mg/kg/injection, schedule: Q01DX001 (ip), vehicle: other 102 % of control | dose: 20.0 mg/kg/injection, schedule: Q01DX001 (ip), vehicle: other 88 % of control

CN(C)C1=CC(=N/S(=O)(=O)c2ccccc2)/C(N(C)C)=CC/1=N/S(=O)(=O)c1ccccc1
inactive: [21] 88 % of control | [22] 90 % of control | [23] 87 % of control

O=C(Cc1cccc2ccccc12)N/N=C/c1ccc(Cl)cc1Cl
inactive: [20] 96 % of control | dose: 200.0 mg/kg/injection, schedule: Q01DX009 (ip), vehicle: saline with Tween-80 93 % of control

Fc1ccc(N=C2c3ccccc3-c3ccccc32)cc1
inactive: [21] 93 % of control | [22] 93 % of control | [23] 95 % of control

CCCC/C=C(\C)CCCCCCCCC (tested in a mixture with another compound)
inactive: [21] 90 % of control | [22] 89 % of control | [23] 98 % of control
